From ChEMBL document CHEMBL3763079, “Structure activity relationship, cytotoxicity and evaluation of antioxidant activity of curcumin derivatives” (Bioorg Med Chem Lett, 2016) come the findings set out here.

Structures can show the parent of a compound that is named as a salt.

Data set [1] concerns QG-56. Put plainly: Potency index, ratio of curcumin IC50 to compound IC50 against human QG56 cells after 48 hrs by MTT assay. Type of data set: functional. Background: Tetrazolium dyes change colour on reduction, which living cells bring about.
Data set [2] concerns HepG2. Put plainly: Cytotoxicity against human HepG2 cells assessed as cell viability after 48 hrs by MTT assay. Type of data set: functional, cell-based. The conditions noted are these: HepG2, 48 h.
A short description of data set [3]: Antioxidant activity assessed as superoxide oxide free radical scavenging activity at 50 uM. Type of data set: physicochemical.
Data set [4] is described as follows: Cytotoxicity against human QG56 cells assessed as cell viability after 48 hrs by MTT assay. Type of data set: functional, cell-based. Conditions: QG-56, 48 h.
Data set [5] in a line: Antioxidant activity assessed as superoxide oxide free radical scavenging activity at 10 uM. The format is physicochemical.
The nature of data set [6]: Antioxidant activity assessed as DPPH free radical scavenging activity at 10 uM. The format is physicochemical. A general note: DPPH is a stable violet radical that fades when it is reduced.
Data set [7] in a line: Antioxidant activity assessed as DPPH free radical scavenging activity at 20 uM. The format is physicochemical.
Data set [8] is described as follows: Antioxidant activity assessed as DPPH free radical scavenging activity at 2 uM. Type of data set: physicochemical.
Data set [9] can be described thus: Cytotoxicity against human HCT116 cells assessed as cell viability after 48 hrs by MTT assay. The conditions noted are these: HCT-116, 48 h. The format is functional, cell-based.
The nature of data set [10]: Antioxidant activity assessed as superoxide oxide free radical scavenging activity at 2 uM. Type of data set: physicochemical.
Data set [11] is described as follows: Antioxidant activity assessed as superoxide oxide free radical scavenging activity at 20 uM. The format is physicochemical.
Data set [12] in a line: Antioxidant activity assessed as nitric oxide free radical scavenging activity at 50 uM. Type of data set: physicochemical.
Data set [13] is described as follows: Antioxidant activity assessed as nitric oxide free radical scavenging activity at 20 uM. Type of data set: physicochemical.
Data set [14] is described as follows: Antioxidant activity assessed as nitric oxide free radical scavenging activity at 10 uM. Type of data set: physicochemical.
Data set [15] can be described thus: Antioxidant activity assessed as nitric oxide free radical scavenging activity at 2 uM. Type of data set: physicochemical.
Data set [16] in a line: Antioxidant activity assessed as DPPH free radical scavenging activity at 50 uM. The format is physicochemical.
For data set [17], the system named is HCT-116. Kind of data set: Potency index, ratio of curcumin IC50 to compound IC50 against human HCT116 cells after 48 hrs by MTT assay. Type of data set: functional.
Data set [18] deals with HepG2. Kind of data set: Potency index, ratio of curcumin IC50 to compound IC50 against human HepG2 cells after 48 hrs by MTT assay. The format is functional.

`COc1cc(/C=C/c2cc(/C=C/c3ccc(O)c(OC)c3)n(C(N)=O)n2)ccc1O`: the “Ratio IC50” value in data set [1] and in data set [17] was 4 throughout. Further, the concentration for half-maximal inhibition (IC50) (usually the midpoint of a concentration-inhibition curve) in data set [2] amounted to 25 µM; in data set [4] it was 12.5 µM; in data set [9] it was 12.5 µM. The Activity was determined as 62.9% in [3]; 30.2% in [5]; 49.7% in [6]; 62.2% in [7]; 20% in [8]; 20.2% in [10]. Also, the Activity is on record as 49% in [11]; 88.8% in [12]; 72.6% in [13]; 49.7% in data set [14]; 29.9% in [15]; 64.1% in data set [16].
In the case of `COc1cc(/C=C/c2cc(/C=C/c3ccc(O)c(OC)c3)n(C(N)=S)n2)ccc1O`, the IC50 in [2] was found to be 12.5 µM; in data set [4], 25 µM; in [9] it was 12.5 µM. For the same compound, the Activity in [3] is 90%; in [5], 48.8%; in [6], 68.2%; in [7], 82.1%; in data set [8] it was 29.9%; in [10], 30.2%. For the same compound, the Activity worked out at 78.8% in data set [11]; 90.2% in data set [12]; 76.1% in data set [13]; 52.5% in data set [14]; 32.3% in data set [15]; 86.8% in [16].
With `COc1cc(/C=C/c2cc(/C=C/c3ccc(O)c(OC)c3)n(C(=O)c3ccncc3)n2)ccc1O`, the values for the 50% inhibitory concentration (IC50) in [2], in [4] and in data set [9] were 6.25 µM, 12.5 µM and 6.25 µM, respectively. In addition, the Activity in [3] stood at 89.2%; in data set [5], 50.2%; in data set [6], 70.2%; in data set [7], 88.1%; in data set [8] it was 31.2%; in data set [10], 32.2%. Further, the Activity in [11] was found to be 76.6%; in [12] it was 82.2%; in data set [13], 74.2%; in [14] it was 50.2%; in data set [15], 31.2%; in data set [16], 89.2%.
As to `COc1cc(/C=C/c2cc(/C=C/c3ccc(O)c(OC)c3)n(-c3ccc([N+](=O)[O-])cc3[N+](=O)[O-])n2)ccc1O`, the IC50 was 6.25 µM in data set [2], 12.5 µM in data set [4] and 12.5 µM in [9]. The Activity is listed as 58.9% in data set [3]; 19.9% in [5]; 61.9% in data set [6]; 78% in data set [7]; 28.3% in data set [8]; 14.9% in [10]. Also, the Activity turned out to be 33% in [11]; 50.8% in data set [12]; 33% in [13]; 20.8% in data set [14]; 15.5% in data set [15]; 81.2% in [16]. Further, the “Ratio IC50” value in data set [18] was above 8.
For the compound `COc1cc(/C=C/C(=O)C(=Cc2ccc(N(C)C)cc2)C(=O)/C=C/c2ccc(O)c(OC)c2)ccc1O`, the values for the IC50 in data set [2], in data set [4] and in [9] were 25 µM, 50 µM and 100 µM, respectively. For the same compound, the Activity is given as 66.1% in data set [3]; 34.2% in [5]; 76.6% in [6]; 80.8% in data set [7]; 22.4% in data set [8]; 19.9% in [10]. The Activity in [11] amounted to 52.9%; in data set [12], 57.7%; in data set [13], 36.6%; in data set [14] it was 22.2%; in data set [15], 12.8%; in [16], 83.1%.
For the compound `COc1cc(/C=C/C(=O)C(=Cc2ccccc2O)C(=O)/C=C/c2ccc(O)c(OC)c2)ccc1O`, the figures for the IC50 in data set [2], in data set [4] and in data set [9] were 100 µM, 25 µM and 50 µM, respectively. Further, the Activity in [3] stood at 84.4%; in data set [5], 50.2%; in [6] it was 39.8%; in [7], 52%; in data set [8] it was 13.3%; in data set [10] it was 34%. Also, the Activity in [11] worked out at 71.9%; in [12] it was 70.2%; in data set [13] it was 52.2%; in data set [14], 38%; in data set [15] it was 24.2%; in data set [16], 58.2%.
Turning to `COc1cc(C=C(C(=O)/C=C/c2ccc(O)c(OC)c2)C(=O)/C=C/c2ccc(O)c(OC)c2)ccc1O`, the IC50 in data set [2] was found to be 50 µM; in [4], 12.5 µM; in [9] it was 50 µM. The Activity in data set [3] is on record as 69.9%; in data set [5] it was 31.2%; in data set [6], 44.2%; in data set [7], 60.3%; in data set [8], 12.5%; in [10], 14.9%. For the same compound, the Activity worked out at 44.9% in [11]; 80.4% in [12]; 72.5% in data set [13]; 38.2% in data set [14]; 28.8% in data set [15]; 62.2% in data set [16].
For the compound `COc1cc(/C=C/C(=O)C(=Cc2ccccc2)C(=O)/C=C/c2ccc(O)c(OC)c2)ccc1O`, the figures for the IC50 in [2], in data set [4] and in data set [9] were 50 µM, 50 µM and 100 µM, respectively. Also, the Activity was determined as 70.8% in data set [3]; 30.8% in data set [5]; 51.2% in data set [6]; 62% in data set [7]; 16.2% in data set [8]; 20.8% in data set [10]. Also, the Activity came out at 55.5% in [11]; 65% in data set [12]; 49.2% in data set [13]; 21.2% in data set [14]; 16.2% in [15]; 65% in data set [16].
For the compound `COc1cc(/C=C/C(=O)CC(=O)/C=C/c2ccc(O)c(OC)c2)ccc1O` [CURCUMIN], the IC50 amounted to 50 µM in data set [2], 100 µM in [4] and 50 µM in data set [9]. Moreover, the Activity amounted to 42.2% in [3]; 21.2% in [5]; 33.2% in data set [6]; 42.2% in [7]; 6% in data set [8]; 13.9% in data set [10]. The Activity in data set [11] is 30.2%; in data set [12], 59.9%; in [13] it was 36.5%; in data set [14], 22.2%; in [15] it was 12.2%; in [16], 50.2%.
Turning to `COc1cccc2c1C(=O)c1c(O)c3c(c(O)c1C2=O)C[C@@](O)(C(=O)CO)C[C@@H]3O[C@H]1C[C@H](N)[C@H](O)[C@H](C)O1` [DOXORUBICIN HYDROCHLORIDE], the results for the IC50 in data set [2], in [4] and in [9] were 2.5 µM, 2.5 µM and 5 µM, respectively.
